Measurements published in ChEMBL document CHEMBL5346950, “Development of Biaryl-Containing Aldo-Keto Reductase 1C3 (AKR1C3) Inhibitors for Reversing AKR1C3-Mediated Drug Resistance in Cancer Treatment” (J Med Chem, 2023).

Columns and labels:
[1] = biological target: T1, Aldo-keto reductase family 1 member C1 (Homo sapiens, UniProt Q04828); test: Inhibition of human recombinant AKR1C1 transfected in Escherichia coli BL21 (DE3) pLysS competent cells using S-tetralol as substrate assessed as inhibition of NADP+ dependent substrate oxidation incubated for 10 mins by fluorescence microplate reader assay
T1 sequence (Q04828 whole entry): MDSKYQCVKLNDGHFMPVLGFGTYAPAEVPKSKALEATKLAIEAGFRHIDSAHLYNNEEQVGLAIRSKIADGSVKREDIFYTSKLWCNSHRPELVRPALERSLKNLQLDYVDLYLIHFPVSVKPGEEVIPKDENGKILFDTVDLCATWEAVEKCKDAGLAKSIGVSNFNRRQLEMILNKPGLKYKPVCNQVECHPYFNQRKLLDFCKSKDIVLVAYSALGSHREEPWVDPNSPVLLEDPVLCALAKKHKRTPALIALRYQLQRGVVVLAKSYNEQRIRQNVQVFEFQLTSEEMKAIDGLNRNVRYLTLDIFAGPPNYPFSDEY

[2] = biological target: Aldo-keto reductase family 1 member B10 (Homo sapiens, UniProt O60218); test: Inhibition of AKR1B10 (unknown origin) transfected in Escherichia coli BL21 (DE3) pLysS competent cells using pyridine-3-aldehyde as substrate assessed as inhibition of NADP+ dependent substrate oxidation incubated for 10 mins
[3] = Cmax in Sprague-Dawley rat at 2 mg/kg, iv measured for 5760 mins by LC-MS/MS analysis; format: ADME, organism-based; set-up: dose 2 mg/kg, time 5760 min, route iv; conditions: in vivo
[4] = AUC (0 to t) in Sprague-Dawley rat at 2 mg/kg, iv measured for 5760 mins by LC-MS/MS analysis; format: ADME, organism-based; set-up: dose 2 mg/kg, time 5760 min, route iv; conditions: in vivo
[5] = Elimination phase half life in Sprague-Dawley rat at 2 mg/kg, iv measured for 5760 mins by LC-MS/MS analysis; format: ADME, organism-based; conditions: in vivo, read-out: beta t1/2 (converted)
[6] = Clearance in Sprague-Dawley rat at 2 mg/kg, iv measured for 5760 mins by LC-MS/MS analysis; format: ADME, organism-based; conditions: in vivo
[7] = Tmax in Sprague-Dawley rat at 10 mg/kg, IG measured for 5760 mins by LC-MS/MS analysis; format: ADME, organism-based; conditions: in vivo, po
[8] = Elimination phase half life in Sprague-Dawley rat at 10 mg/kg, IG measured for 5760 mins by LC-MS/MS analysis; format: ADME, organism-based; conditions: in vivo, po, read-out: beta t1/2 (converted)
[9] = Metabolic stability in liver microsomes (unknown origin) assessed as half life; format: ADME, Microsome
[10] = Toxicity in BALB/c nude mouse xenografted with human MCF7 cells expressing AKR1C3 assessed as reduction in body weight at 10 mg/kg, po administered every 2 days for 3 weeks in presence of doxorubicin and measured every 3 days; format: organism-based; conditions: in vivo, 504 h
[11] = Toxicity in BALB/c nude mouse xenografted with human MCF7 cells expressing AKR1C3 assessed as histopathological changes in liver at 10 mg/kg, po administered every 2 days for 3 weeks in presence of doxorubicin by H and E staining based analysis; format: organism-based; conditions: in vivo, 504 h
[12] = Toxicity in BALB/c nude mouse xenografted with human MCF7 cells expressing AKR1C3 assessed as histopathological changes in kidney at 10 mg/kg, po administered every 2 days for 3 weeks in presence of doxorubicin by H and E staining based analysis; format: organism-based; conditions: in vivo, 504 h
[13] = Toxicity in BALB/c nude mouse xenografted with human MCF7 cells expressing AKR1C3 assessed as histopathological changes in heart at 10 mg/kg, po administered every 2 days for 3 weeks in presence of doxorubicin by H and E staining based analysis; format: organism-based; conditions: in vivo, 504 h
[14] = Toxicity in BALB/c nude mouse xenografted with human MCF7 cells expressing AKR1C3 assessed as histopathological changes in lungs at 10 mg/kg, po administered every 2 days for 3 weeks by H and E staining based analysis; format: organism-based; conditions: in vivo, 504 h
[15] = Toxicity in BALB/c nude mouse xenografted with human MCF7 cells expressing AKR1C3 assessed as histopathological changes in heart at 10 mg/kg, po administered every 2 days for 3 weeks by H and E staining based analysis; format: organism-based; conditions: in vivo, 504 h
MCF7 [16] = test: Synergistic antiproliferative activity against human MCF7 cells overexpressing AKR1C3 assessed as combination index at 10 uM incubated for 72 hrs in presence of doxorubicin at 20 nM by Chou-Talalay method; format: functional
MCF7 [17] = test: Synergistic antiproliferative activity against human MCF7 cells overexpressing AKR1C3 assessed as combination index at 10 uM incubated for 72 hrs in presence of doxorubicin at 50 nM by Chou-Talalay method; format: functional
MCF7 [18] = test: Synergistic antiproliferative activity against human MCF7 cells overexpressing AKR1C3 assessed as combination index at 10 uM incubated for 72 hrs in presence of doxorubicin at 100 nM by Chou-Talalay method; format: functional
MCF7 [19] = test: Synergistic antiproliferative activity against human MCF7 cells overexpressing AKR1C3 assessed as combination index at 25 uM incubated for 72 hrs in presence of doxorubicin at 20 nM by Chou-Talalay method; format: functional
MCF7 [20] = test: Synergistic antiproliferative activity against human MCF7 cells overexpressing AKR1C3 assessed as combination index at 25 uM incubated for 72 hrs in presence of doxorubicin at 200 nM by Chou-Talalay method; format: functional
MCF7 [21] = test: Synergistic antiproliferative activity against human MCF7 cells overexpressing AKR1C3 assessed as combination index at 50 uM incubated for 72 hrs in presence of doxorubicin at 50 nM by Chou-Talalay method; format: functional
MCF7 [22] = test: Synergistic antiproliferative activity against human MCF7 cells overexpressing AKR1C3 assessed as dose reduction index for doxorubicin at 10 uM incubated for 72 hrs in presence of doxorubicin at 20 nM by Chou-Talalay method; format: functional
MCF7 [23] = test: Synergistic antiproliferative activity against human MCF7 cells overexpressing AKR1C3 assessed as dose reduction index for doxorubicin at 10 uM incubated for 72 hrs in presence of doxorubicin at 100 nM by Chou-Talalay method; format: functional
MCF7 [24] = test: Synergistic antiproliferative activity against human MCF7 cells overexpressing AKR1C3 assessed as dose reduction index for doxorubicin at 10 uM incubated for 72 hrs in presence of doxorubicin at 200 nM by Chou-Talalay method; format: functional
MCF7 [25] = test: Synergistic antiproliferative activity against human MCF7 cells overexpressing AKR1C3 assessed as dose reduction index for doxorubicin at 25 uM incubated for 72 hrs in presence of doxorubicin at 100 nM by Chou-Talalay method; format: functional
MCF7 [26] = test: Synergistic antiproliferative activity against human MCF7 cells overexpressing AKR1C3 assessed as dose reduction index for doxorubicin at 50 uM incubated for 72 hrs in presence of doxorubicin at 100 nM by Chou-Talalay method; format: functional
MCF7 [27] = test: Synergistic antiproliferative activity against human MCF7 cells overexpressing AKR1C3 assessed as dose reduction index for doxorubicin at 50 uM incubated for 72 hrs in presence of doxorubicin at 200 nM by Chou-Talalay method; format: functional

Aldo-keto reductase family 1 member B10, sequence (O60218 whole entry): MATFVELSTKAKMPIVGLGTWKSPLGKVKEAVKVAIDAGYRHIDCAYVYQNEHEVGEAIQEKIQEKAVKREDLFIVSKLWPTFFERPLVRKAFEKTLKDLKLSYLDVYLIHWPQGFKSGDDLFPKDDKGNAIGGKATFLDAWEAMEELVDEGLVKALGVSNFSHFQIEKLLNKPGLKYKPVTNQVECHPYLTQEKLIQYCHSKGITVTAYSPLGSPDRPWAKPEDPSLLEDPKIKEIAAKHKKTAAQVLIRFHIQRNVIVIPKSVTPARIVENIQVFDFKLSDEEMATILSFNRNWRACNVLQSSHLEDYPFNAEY

Structure (SMILES): O=C(O)C1(c2ccc(-c3cc(Cl)cc(Cl)c3)c(F)c2)CC1
- IC50 [1]: 2930 nM
- IC50 [2]: > 10000 nM
- Cmax [3]: 24500 ng/mL
- AUC(0-t) at 96 h [4]: 552 ng·h/mL
- half-life [5]: 19.1 h
- clearance [6]: 52.3 mL/min/kg
- Tmax [7]: 10 h
- half-life [8]: 21.3 h
- half-life [9]: 6.94 h
- Activity [10]: Non-Toxic
- Activity [11]: Non-Toxic
- Activity [12]: Non-Toxic
- Activity [13]: Non-Toxic
- Activity [14]: Non-Toxic
- Activity [15]: Non-Toxic
- CI (MCF7 [16]): 0.36
- CI (MCF7 [17]): 0.285
- CI (MCF7 [18]): 0.326
- CI (MCF7 [19]): 0.276
- CI (MCF7 [20]): 0.274
- CI (MCF7 [21]): 0.239
- Activity_index (MCF7 [22]): 8.47
- Activity_index (MCF7 [23]): 4.423
- Activity_index (MCF7 [24]): 3.821
- Activity_index (MCF7 [25]): 5.813
- Activity_index (MCF7 [26]): 15.324
- Activity_index (MCF7 [27]): 13.929
